In US20240210412A1, “SULFONYL-TRIAZOLE COMPOUNDS USEFUL AS LIGANDS AND INHIBITORS OF PROSTAGLANDIN REDUCTASE 2” (University of Virginia Patent Foundation, priority 2021, published 2024):

Tests used:
PTGR2 = biological target: T1, PTGR2 (Homo sapiens, UniProt Q8N8N7); assay: PTGR2 enzymatic (15-keto-PGE2 substrate) assay after live-cell treatment; assay type: biochemical; conditions: cells treated 2 h 37° C., up to 25 μM; 15-keto-PGE2 20 μM
T1 construct: host or cells: HEK293T
Description: PTGR2 enzymatic assay was performed based on a previously described chromogenic method^[17,81]. HEK293T cells expressing recombinant PTGR2 were treated with DMSO vehicle or indicated concentrations of SuTEx ligand for 2 hrs. The cells were washed with cold PBS twice and harvested. The proteomes were lysed in PBS by sonication and fractionated (100,000×g, 45 min, 4° C.). Soluble proteome (0.5 mg) was incubated for 30 min at 37° C. with 1 mM of EDTA, DTT, NADPH and 20 μM 15-Keto PGE2 in 0.1 M Tris-HCl (PH 7.5) (final volume of 230 μL) and the substrate consumed was determined by adding 20 μL 20 N NaOH, mixing and measuring absorbance at 500 nm after 5 min.
The effect of liganding tyrosine sites on the biochemical function of PTGR2 was investigated. PTGR2 has a role in metabolism and there is an ability to measure its biochemical activity using an established 15-keto-PGE2 substrate assay^[17-18]. In brief, recombinant PTGR2 expressing HEK293T cells were treated with DMSO, HHS-0701, or HHS-0101 (negative control) for 2 hours at 37° C. Cells were lysed and the soluble fractions incubated in an assay buffer containing 15-keto-PGE2 (20 μM) for 30 minutes at 37° C. After quenching reactions in NaOH, the amount of substrate remaining was quantified by absorbance of a red chromophore that forms in an alkaline solution of 15-keto-PGE2^[17-18]. […]

[1] = biological target: T2, P16930 (fumarylacetoacetase, FAH) (Homo sapiens, UniProt P16930); assay: SILAC LC-MS ABPP; assay type: cell-based
T2 construct: endogenous in cells; host or cells: DM93 (SILAC)
Description: Cells were grown to 90-95% confluence before being washed once with warm, sterile DPBS (1×, 5 mL), followed by addition of 10 mL of serum-free media (supplemented with 1% L-glutamine) containing either DMSO or SuTEx fragment (in DMSO) was added. Light cells were treated with DMSO vehicle while the heavy cells were treated with DMSO or SuTEx fragment (in DMSO) and incubated for 2 hrs. After 2 hrs, the cells were treated with SuTEx alkyne probe (HHS475, 10 μL of 1000× DMSO stock) and incubated for an additional 2 hrs. The media was aspirated and cells washed with cold PBS (5 mL) and harvested. Cells were spun at 500×g for 5 min at 4° C. followed by removal of supernatant. […]
Coupling cell-based screens with chemical proteomics can facilitate the identification of target protein and binding sites that engage and are irreversibly modified by covalent ligands^[12]. In these assays, covalent ligands block SuTEx activity-based probe (ABP) labeling at protein sites, and the competition of probe labeling can be used to quantify potency and selectivity across the proteome^[10a]. To facilitate quantitative chemical proteomics, DM93 melanoma cells were cultured using stable isotopic labeling by amino acids in cell culture (SILAC)^[13]. […] Probe-modified peptides were resolved, identified, and quantified by high-resolution liquid chromatography-tandem mass spectrometry (LC-MS/MS). […]

T2 sequence (P16930 whole entry): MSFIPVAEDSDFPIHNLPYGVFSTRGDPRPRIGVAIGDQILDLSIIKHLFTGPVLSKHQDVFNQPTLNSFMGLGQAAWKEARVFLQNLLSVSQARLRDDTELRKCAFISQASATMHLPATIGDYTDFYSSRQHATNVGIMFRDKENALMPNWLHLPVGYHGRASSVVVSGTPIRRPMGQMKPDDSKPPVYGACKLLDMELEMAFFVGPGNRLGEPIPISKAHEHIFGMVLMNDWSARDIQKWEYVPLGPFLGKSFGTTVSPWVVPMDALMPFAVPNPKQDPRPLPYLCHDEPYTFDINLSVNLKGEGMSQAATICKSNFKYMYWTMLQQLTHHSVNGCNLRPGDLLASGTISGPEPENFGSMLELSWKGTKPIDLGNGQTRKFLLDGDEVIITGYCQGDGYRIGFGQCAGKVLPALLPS
T1 sequence (Q8N8N7 whole entry): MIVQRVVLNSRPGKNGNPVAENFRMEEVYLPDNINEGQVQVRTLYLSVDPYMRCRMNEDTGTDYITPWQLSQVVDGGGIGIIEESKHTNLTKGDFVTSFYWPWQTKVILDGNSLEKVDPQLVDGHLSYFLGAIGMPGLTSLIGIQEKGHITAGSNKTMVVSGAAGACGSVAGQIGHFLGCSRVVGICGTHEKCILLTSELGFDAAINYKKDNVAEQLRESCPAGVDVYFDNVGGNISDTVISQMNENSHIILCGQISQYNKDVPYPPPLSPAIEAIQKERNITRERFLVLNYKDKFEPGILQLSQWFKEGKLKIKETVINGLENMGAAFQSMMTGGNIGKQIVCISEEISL

SMILES	inhibition of PTGR2 biochemical activity (PTGR2)	liganded tyrosine site 244 ([1]; 25 μM 2 h, live DM93 cells)	FAH Y244 site liganded ([1]; live DM93 cells treated with ligand) [%]
O=C(c1ccc(S(=O)(=O)n2cncn2)cc1)N1CCC(c2ccccc2)CC1 [HHS-0701, (4-((1H-1,2,4-triazol-1-yl)sulfonyl)phenyl)(4-phenylpiperidin-1-yl)methanone]	concentration-dependent inhibition of PTGR2 activity	–	–
O=C(NC1CC1)c1ccc(S(=O)(=O)n2cncn2)cc1 [HHS-0101, 4-((1H-1,2,4-triazol-1-yl)sulfonyl)-N-cyclopropylbenzamide]	No inhibitory activity	HHS0101.Y|HHS0201.Y|HHS0301.Y|HHS0401.Y|HHS0701.Y (tyrosine sites that showed >80% reductions (SR >5) in probe labeling in cells treated with compounds (liganded sites))	–
O=C(NCc1ccccc1)c1ccc(S(=O)(=O)n2cncn2)cc1 [HHS-0401, 4-((1H-1,2,4-triazol-1-yl)sulfonyl)-N-benzylbenzamide]	–	–	> 90
